# Patent US9226916B2, “Pyrrolidine derivatives” (HOFFMANN-LA ROCHE INC., priority 2009, dated 2016)
# pKi: −log10 of the molar value. Read-outs that look alike come from different tables or passages of the source.
# Biological target: T1, recombinant human NK3 receptor (Homo sapiens, UniProt P29371)
# T1 construct: expressed in transfected cells; host or cells: HEK293 cells, transient expression; membranes
# T1 sequence (P29371 1-465): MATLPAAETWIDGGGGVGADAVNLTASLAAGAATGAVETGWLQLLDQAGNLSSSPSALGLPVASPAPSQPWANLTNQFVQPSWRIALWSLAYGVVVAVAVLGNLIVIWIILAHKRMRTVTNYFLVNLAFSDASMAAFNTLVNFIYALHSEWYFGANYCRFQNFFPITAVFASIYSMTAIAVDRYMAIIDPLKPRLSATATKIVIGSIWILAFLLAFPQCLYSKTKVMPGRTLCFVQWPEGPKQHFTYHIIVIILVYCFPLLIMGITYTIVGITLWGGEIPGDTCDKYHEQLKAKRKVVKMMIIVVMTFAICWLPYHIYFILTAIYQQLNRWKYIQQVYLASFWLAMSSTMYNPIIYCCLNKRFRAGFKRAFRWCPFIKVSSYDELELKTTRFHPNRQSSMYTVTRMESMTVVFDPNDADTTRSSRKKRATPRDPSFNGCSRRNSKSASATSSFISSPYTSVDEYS
# Test: [3H]SR142801 competition binding assay
# [1] = hNK-3 receptor affinity, membranes from HEK293 cells transiently expressing recombinant human NK3 receptor, [3H]SR142801, Cheng-Prussoff, read-out: Data Ki
SMILES,pKi [1],pKi
"CN(C(=O)OCCC(F)(F)F)[C@H]1CN(C(=O)C2CCN(c3ccc(C#N)cn3)CC2)C[C@@H]1c1ccc(Cl)cc1 [Example 145, [(3R,4S)-4-(4-Chloro-phenyl)-1-(5′-cyano-3,4,5,6-tetrahydro-2H-[1,2′]bipyridinyl-4-carbonyl)-pyrrolidin-3-yl]-methyl-carbamic acid 3,3,3-trifluoro-propyl ester]",7.24,
"CN(C(=O)Oc1ccc(F)cc1)[C@@H]1CN(C(=O)C2CCOC(C)(C)C2)C[C@H]1c1ccc(Cl)cc1 (stereo partly drawn) [Example 146, [(3S,4R)-4-(4-Chloro-phenyl)-1-(2,2-dimethyl-tetrahydro-pyran-4-carbonyl)-pyrrolidin-3-yl]-methyl-carbamic acid 4-fluoro-phenyl ester]",,8.17
"CN(C(=O)Oc1ccc(F)cc1)[C@@H]1CN(C(=O)C2CCCOC2)C[C@H]1c1ccc(Cl)cc1 (stereo partly drawn) [Example 147, [(3S,4R)-4-(4-Chloro-phenyl)-1-(tetrahydro-pyran-3-carbonyl)-pyrrolidin-3-yl]-methyl-carbamic acid 4-fluoro-phenyl ester]",,7.13
"COC1CC(C(=O)N2C[C@@H](N(C)C(=O)Oc3ccc(F)cc3)[C@H](c3ccc(Cl)cc3)C2)C1 (stereo partly drawn) [Example 149, [(3S,4R)-4-(4-Chloro-phenyl)-1-(3-methoxy-cyclobutanecarbonyl)-pyrrolidin-3-yl]-methyl-carbamic acid 4-fluoro-phenyl ester]",,7.04
"CN(C(=O)Oc1ccc(F)cc1)[C@@H]1CN(C(=O)C2CCN(C3CC3)CC2)C[C@H]1c1ccc(Cl)cc1 [Example 150, [(3S,4R)-4-(4-Chloro-phenyl)-1-(1-cyclopropyl-piperidine-4-carbonyl)-pyrrolidin-3-yl]-methyl-carbamic acid 4-fluoro-phenyl ester]",,7.81
"CN(C(=O)Oc1ccc(F)cc1)[C@@H]1CN(C(=O)C2CCN(C(=O)OC(C)(C)C)C2)C[C@H]1c1ccc(Cl)cc1 (stereo partly drawn) [Example 151, 3-{(3R,4S)-3-(4-Chloro-phenyl)-4-[(4-fluoro-phenoxycarbonyl)-methyl-amino]-pyrrolidine-1-carbonyl}-pyrrolidine-1-carboxylic acid tert-butyl ester]",,7.74
"CN(C(=O)OC1CCCCC1)[C@@H]1CN(C(=O)C2CCN(C(=O)C3(C)CC3)CC2)C[C@H]1c1ccc(Cl)cc1 [Example 152, {(3S,4R)-4-(4-Chloro-phenyl)-1-[1-(1-methyl-cyclopropanecarbonyl)-piperidine-4-carbonyl]-pyrrolidin-3-yl}-methyl-carbamic acid cyclohexyl ester]",7.83,
"CC(OC(=O)N(C)[C@@H]1CN(C(=O)C2CCN(c3ccc(C#N)cn3)CC2)C[C@H]1c1ccc(Cl)cc1)C1CC1 (stereo partly drawn) [Example 153, [(3S,4R)-4-(4-Chloro-phenyl)-1-(5′-cyano-3,4,5,6-tetrahydro-2H-[1,2′]bipyridinyl-4-carbonyl)-pyrrolidin-3-yl]-methyl-carbamic acid 1-cyclopropyl-ethyl ester]",7.72,
"CN(C(=O)OC1CCOCC1)[C@@H]1CN(C(=O)C2CCN(c3ccc(C#N)cn3)CC2)C[C@H]1c1ccc(Cl)cc1 [Example 156, [(3S,4R)-4-(4-Chloro-phenyl)-1-(5′-cyano-3,4,5,6-tetrahydro-2H-[1,2′]bipyridinyl-4-carbonyl)-pyrrolidin-3-yl]-methyl-carbamic acid tetrahydro-pyran-4-yl ester]",7.74,
"CCC(C)OC(=O)N(C)[C@@H]1CN(C(=O)C2CCN(c3ccc(C#N)cn3)CC2)C[C@H]1c1ccc(Cl)cc1 (stereo partly drawn) [Example 157, [(3S,4R)-4-(4-Chloro-phenyl)-1-(5′-cyano-3,4,5,6-tetrahydro-2H-[1,2′]bipyridinyl-4-carbonyl)-pyrrolidin-3-yl]-methyl-carbamic acid sec-butyl ester]",,7.57
"CN(C(=O)OCC(F)(F)F)[C@@H]1CN(C(=O)C2CCN(c3ccc(C#N)cn3)CC2)C[C@H]1c1ccc(Cl)cc1 [Example 158, [(3S,4R)-4-(4-Chloro-phenyl)-1-(5′-cyano-3,4,5,6-tetrahydro-2H-[1,2′]bipyridinyl-4-carbonyl)-pyrrolidin-3-yl]-methyl-carbamic acid 2,2,2-trifluoro-ethyl ester]",7.90,
"CN(C(=O)O[C@H]1CC[C@H](C(F)(F)F)CC1)[C@@H]1CN(C(=O)C2CCN(c3ccc(C#N)cn3)CC2)C[C@H]1c1ccc(Cl)c(Cl)c1 [Example 159, [(3S,4R)-1-(5′-Cyano-3,4,5,6-tetrahydro-2H-[1,2′]bipyridinyl-4-carbonyl)-4-(3,4-dichloro-phenyl)-pyrrolidin-3-yl]-methyl-carbamic acid 4-trifluoromethyl-cyclohexyl ester]",9.40,
"Cc1ccc(N2CCC(C(=O)N3C[C@@H](N(C)C(=O)O[C@H]4CC[C@H](C(F)(F)F)CC4)[C@H](c4ccc(Cl)c(Cl)c4)C3)CC2)nn1 [Example 160, {(3S,4R)-4-(3,4-Dichloro-phenyl)-1-[1-(6-methyl-pyridazin-3-yl)-piperidine-4-carbonyl]-pyrrolidin-3-yl}-methyl-carbamic acid 4-trifluoromethyl-cyclohexyl ester]",,9.30
"CN(C(=O)O[C@H]1CC[C@H](C(F)(F)F)CC1)[C@@H]1CN(C(=O)C2CCOCC2)C[C@H]1c1ccc(Cl)c(Cl)c1 [Example 161, [(3S,4R)-4-(3,4-Dichloro-phenyl)-1-(tetrahydro-pyran-4-carbonyl)-pyrrolidin-3-yl]-methyl-carbamic acid 4-trifluoromethyl-cyclohexyl ester]",,8.13
"CN(C(=O)OCC(F)(F)F)[C@@H]1CN(C(=O)C2CCN(C(=O)C3(C)CC3)CC2)C[C@H]1c1ccc(Cl)cc1 [Example 164, {(3S,4R)-4-(4-Chloro-phenyl)-1-[1-(1-methyl-cyclopropanecarbonyl)-piperidine-4-carbonyl]-pyrrolidin-3-yl}-methyl-carbamic acid 2,2,2-trifluoro ethyl ester]",7.09,
"CC(OC(=O)N(C)[C@@H]1CN(C(=O)C2CCN(c3ccc(C#N)cn3)CC2)C[C@H]1c1ccc(Cl)cc1)C(F)(F)F (stereo partly drawn) [Example 166, [(3S,4R)-4-(4-Chloro-phenyl)-1-(5′-cyano-3,4,5,6-tetrahydro-2H-[1,2′]bipyridinyl-4-carbonyl)-pyrrolidin-3-yl]-methyl-carbamic acid 2,2,2-trifluoro-1-methyl-ethyl ester]",7.44,
"Cc1ccnc(N2CCC(C(=O)N3C[C@@H](N(C)C(=O)Oc4ccc(F)cc4)[C@H](c4ccc(Cl)cc4)C3)CC2)n1 [Example 167, {(3S,4R)-4-(4-Chloro-phenyl)-1-[1-(4-methyl-pyrimidin-2-yl)-piperidine-4-carbonyl]-pyrrolidin-3-yl}-methyl-carbamic acid 4-fluoro-phenyl ester]",,8.31
"CN(C(=O)Oc1ccc(F)cc1)[C@@H]1CN(C(=O)C2CCNC2)C[C@H]1c1ccc(Cl)cc1 (stereo partly drawn) [Example 168, [(3S,4R)-4-(4-Chloro-phenyl)-1-(pyrrolidine-3-carbonyl)-pyrrolidin-3-yl]-methyl-carbamic acid 4-fluoro-phenyl ester]",,7.01
"CN(C(=O)Oc1ccc(F)cc1)[C@@H]1CN(C(=O)C2CCN(c3ncc(F)cn3)CC2)C[C@H]1c1ccc(Cl)cc1 [Example 169, {(3S,4R)-4-(4-Chloro-phenyl)-1-[1-(5-fluoro-pyrimidin-2-yl)-piperidine-4-carbonyl]-pyrrolidin-3-yl}-methyl-carbamic acid 4-fluoro-phenyl ester]",,8.39
